Data reported in publication PMC10850145, “Hormonal steroids induce multidrug resistance and stress response genes in Neisseria gonorrhoeae by binding to MtrR” (Nature Communications, 2024).
Several values for one entry are separate records, joined by “and”; a condition that tells them apart may be missing. Identical values can stand only once. Like-named read-outs stand apart in the source and are kept apart here.

Key:
[1] = test system: rpoH-lacZ expression; assay type: cell-based, Neisseria gonorrhoeae
[2] = test system: N. gonorrhoeae; design: method as in PMID 816438; settings: cited from earlier work
[3] = test system: ngo1249-lacZ expression; assay: β-galactosidase assay, ngo1249-lacZ fusion (negative control gene); settings: WT-NGO1249-lacZ
[4] = rpoH-lacZ, ΔmtrR + mtrR D171A in trans, 25 µM hormone, single replicate
[5] = rpoH-lacZ, ΔmtrR + mtrR D171A in trans, 50 µM hormone, single replicate

With `C[C@]12CC[C@@H]3c4ccc(O)cc4CC[C@H]3[C@@H]1CC[C@@H]2O` [β-Estradiol, β-estradiol] the “β-galactosidase activity (Miller units)” value ([1]; rpoH-lacZ, ΔmtrR + mtrR D171A in trans, 12.5 µM hormone, single replicate) was 68 Miller units and 72 Miller units and 94 Miller units, the Miller units [1, 4] was 76 Miller units and the “β-galactosidase activity (Miller units)” value [1, 4] was 84 Miller units and 81 Miller units and 65 Miller units. For the same compound, the Miller units [1, 5] was 82 Miller units, the “β-galactosidase activity (Miller units)” value [1, 5] was 80 Miller units and 76 Miller units and the “β-galactosidase activity (Miller units)” value ([1]; rpoH-lacZ, ΔmtrR + mtrR WT in trans, 6.25 µM hormone, single replicate) was 29 Miller units and 43 Miller units and 45 Miller units and 49 Miller units. For the same compound, the “β-galactosidase activity (Miller units)” value ([1]; rpoH-lacZ, ΔmtrR + mtrR WT in trans, 12.5 µM hormone, single replicate) was 60 Miller units and 54 Miller units and 64 Miller units and 67 Miller units, the “β-galactosidase activity (Miller units)” value ([1]; rpoH-lacZ, ΔmtrR + mtrR WT in trans, 25 µM hormone, single replicate) was 91 Miller units and 57 Miller units and 68 Miller units and 64 Miller units and the “β-galactosidase activity (Miller units)” value ([1]; rpoH-lacZ, ΔmtrR + mtrR WT in trans, 50 µM hormone, single replicate) was 89 Miller units and 63 Miller units and 78 Miller units and 82 Miller units. For the same compound, the “β-galactosidase activity (Miller units)” value ([1]; rpoH-lacZ, ΔmtrR strain, 6.25 µM hormone, single replicate) was 253 Miller units and 160 Miller units and 91 Miller units, the “β-galactosidase activity (Miller units)” value ([1]; rpoH-lacZ, ΔmtrR strain, 12.5 µM hormone, single replicate) was 161 Miller units and 99 Miller units and the “β-galactosidase activity (Miller units)” value ([1]; rpoH-lacZ, ΔmtrR strain, 25 µM hormone, single replicate) was 232 Miller units and 156 Miller units and 133 Miller units. The “β-galactosidase activity (Miller units)” value ([1]; rpoH-lacZ, ΔmtrR strain, 50 µM hormone, single replicate) was 195 Miller units and 151 Miller units and 114 Miller units, the Miller units ([1]; rpoH-lacZ, ΔmtrR, 6.25 µM hormone, single replicate) was 150 Miller units and the Miller units ([1]; rpoH-lacZ, ΔmtrR, 12.5 µM hormone, single replicate) was 165 Miller units. The Miller units ([1]; rpoH-lacZ, ΔmtrR, 25 µM hormone, single replicate) was 177 Miller units, the Miller units ([1]; rpoH-lacZ, ΔmtrR, 50 µM hormone, single replicate) was 178 Miller units and the Miller units ([1]; single well, plate rows 5-8, plate columns 1-6 (first strain), 6.25 µM hormone) was 29 Miller units and 43 Miller units and 45 Miller units and 49 Miller units. The Miller units ([1]; single well, plate rows 5-8, plate columns 1-6 (first strain), 12.5 µM hormone) was 60 Miller units and 54 Miller units and 64 Miller units and 67 Miller units, the Miller units ([1]; single well, plate rows 5-8, plate columns 1-6 (first strain), 25 µM hormone) was 91 Miller units and 57 Miller units and 68 Miller units and 64 Miller units and the Miller units ([1]; single well, plate rows 5-8, plate columns 1-6 (first strain), 50 µM hormone) was 89 Miller units and 63 Miller units and 78 Miller units and 82 Miller units. The Miller units ([1]; single well, plate rows 5-8, plate columns 7-12 (second strain), 6.25 µM hormone) was 64 Miller units and 67 Miller units and 73 Miller units and 90 Miller units, the Miller units ([1]; single well, plate rows 5-8, plate columns 7-12 (second strain), 12.5 µM hormone) was 68 Miller units and 72 Miller units and 67 Miller units and 94 Miller units and the Miller units ([1]; single well, plate rows 5-8, plate columns 7-12 (second strain), 25 µM hormone) was 84 Miller units and 81 Miller units and 76 Miller units and 65 Miller units. The Miller units ([1]; single well, plate rows 5-8, plate columns 7-12 (second strain), 50 µM hormone) was 80 Miller units and 82 Miller units and 76 Miller units, the “β-galactosidase activity, rpoH-lacZ, Mean” value ([1]; strain WT (FA19/pLES94-rpoH), hormone 6.25 µM) was 83 Miller units and the “β-galactosidase activity, rpoH-lacZ, Mean” value ([1]; strain WT (FA19/pLES94-rpoH), hormone 12.5 µM) was 113 Miller units. The “β-galactosidase activity, rpoH-lacZ, Mean” value ([1]; strain WT (FA19/pLES94-rpoH), hormone 25 µM) was 148 Miller units, the “β-galactosidase activity, rpoH-lacZ, Mean” value ([1]; strain WT (FA19/pLES94-rpoH), hormone 50 µM) was 162 Miller units and the “activation of rpoH” value ([1]; strain producing MtrR R176E) was “clearly weaker activation”. For the same compound, the “β-galactosidase activity, rpoH-lacZ, Mean” value ([1]; strain ΔmtrR (FA19 ∆mtrR/pLES94-rpoH), hormone 6.25 µM) was 163 Miller units, the “β-galactosidase activity, rpoH-lacZ, Mean” value ([1]; strain ΔmtrR (FA19 ∆mtrR/pLES94-rpoH), hormone 12.5 µM) was 152 Miller units and the “β-galactosidase activity, rpoH-lacZ, Mean” value ([1]; strain ΔmtrR (FA19 ∆mtrR/pLES94-rpoH), hormone 25 µM) was 175 Miller units. The “β-galactosidase activity, rpoH-lacZ, Mean” value ([1]; strain ΔmtrR (FA19 ∆mtrR/pLES94-rpoH), hormone 50 µM) was 160 Miller units, the “β-galactosidase activity, rpoH-lacZ, Mean” value ([1]; strain ΔmtrR + mtrR D171A (pGCC3-mtrR D171A), hormone 6.25 µM) was 74 Miller units and the “β-galactosidase activity, rpoH-lacZ, Mean” value ([1]; strain ΔmtrR + mtrR D171A (pGCC3-mtrR D171A), hormone 12.5 µM) was 75 Miller units. For the same compound, the “β-galactosidase activity, rpoH-lacZ, Mean” value ([1]; strain ΔmtrR + mtrR D171A (pGCC3-mtrR D171A), hormone 25 µM) was 76 Miller units, the “β-galactosidase activity, rpoH-lacZ, Mean” value ([1]; strain ΔmtrR + mtrR D171A (pGCC3-mtrR D171A), hormone 50 µM) was 80 Miller units and the “β-galactosidase activity, rpoH-lacZ, Mean” value ([1]; strain ΔmtrR + mtrR WT (pGCC3-mtrR), hormone 6.25 µM) was 42 Miller units. For the same compound, the “β-galactosidase activity, rpoH-lacZ, Mean” value ([1]; strain ΔmtrR + mtrR WT (pGCC3-mtrR), hormone 12.5 µM) was 61 Miller units, the “β-galactosidase activity, rpoH-lacZ, Mean” value ([1]; strain ΔmtrR + mtrR WT (pGCC3-mtrR), hormone 25 µM) was 70 Miller units and the “β-galactosidase activity, rpoH-lacZ, Mean” value ([1]; strain ΔmtrR + mtrR WT (pGCC3-mtrR), hormone 50 µM) was 78 Miller units. For the same compound, the “growth inhibition of N. gonorrhoeae” value [2] was “arrest N. gonorrhoeae growth”, the “Mean Miller units” value ([3]; 0.1 µM hormone) was 5 Miller units and the “Mean Miller units” value ([3]; 1 µM hormone) was 5 Miller units. For the same compound, the “Mean Miller units” value ([3]; 10 µM hormone) was 5.32 Miller units, the “Mean Miller units” value ([3]; 50 µM hormone) was 4.874 Miller units and the “Mean Miller units” value ([3]; 100 µM hormone) was 4.606 Miller units.
